Assay results as given in ChEMBL document CHEMBL1134704, “Design, synthesis, and SAR of amino acid derivatives as factor Xa inhibitors” (Bioorg Med Chem Lett, 2001).

Key:
Prothrombin = Prothrombin (Homo sapiens, UniProt P00734); experiment: In vitro inhibition of human thrombin.
Coagulation factor X [1] = target: T1, Coagulation factor X (Homo sapiens, UniProt P00742); experiment: In vitro inhibition of human coagulation factor Xa.
Serine protease 1 = Serine protease 1 (Homo sapiens, UniProt P07477); experiment: In vitro inhibition of human trypsin.
Coagulation factor X [2] = target: T1, Coagulation factor X; experiment: Inhibitory activity against Coagulation factor X was determined
[3] = Oral bioavailability in rat; type: ADME, organism-based; settings: in vivo
[4] = target: Vitamin K-dependent protein C (Homo sapiens, UniProt P04070); experiment: Inhibitory activity against activated protein C (APC)
[5] = target: Tissue-type plasminogen activator (Homo sapiens, UniProt P00750); experiment: Inhibitory activity against Tissue plasminogen activator
Plasminogen = Plasminogen (Homo sapiens, UniProt P00747); experiment: Inhibitory activity against plasmin
Chain of Plasminogen (P00747 97-580 limits assumed): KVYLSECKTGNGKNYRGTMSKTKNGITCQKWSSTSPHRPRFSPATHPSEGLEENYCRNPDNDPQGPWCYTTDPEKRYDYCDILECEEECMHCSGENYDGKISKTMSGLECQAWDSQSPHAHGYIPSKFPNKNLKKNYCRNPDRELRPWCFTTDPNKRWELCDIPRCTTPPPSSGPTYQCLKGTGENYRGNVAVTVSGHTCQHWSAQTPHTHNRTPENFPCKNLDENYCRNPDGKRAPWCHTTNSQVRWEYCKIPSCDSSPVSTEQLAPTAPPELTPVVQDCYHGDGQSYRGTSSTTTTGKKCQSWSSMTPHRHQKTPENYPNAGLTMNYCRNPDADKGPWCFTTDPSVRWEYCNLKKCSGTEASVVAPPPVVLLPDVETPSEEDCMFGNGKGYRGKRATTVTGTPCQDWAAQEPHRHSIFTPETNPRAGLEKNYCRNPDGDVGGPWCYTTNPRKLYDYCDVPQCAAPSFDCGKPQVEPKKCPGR
Chain of Plasminogen (P00747 581-810 limits assumed): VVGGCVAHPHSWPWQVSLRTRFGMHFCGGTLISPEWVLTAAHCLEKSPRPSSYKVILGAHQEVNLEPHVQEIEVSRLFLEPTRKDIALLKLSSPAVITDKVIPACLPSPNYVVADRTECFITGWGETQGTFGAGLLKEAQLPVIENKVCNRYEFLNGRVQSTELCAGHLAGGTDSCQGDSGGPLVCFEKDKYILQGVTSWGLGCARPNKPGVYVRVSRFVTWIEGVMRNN

T1 sequence (P00742 41-179 limits assumed): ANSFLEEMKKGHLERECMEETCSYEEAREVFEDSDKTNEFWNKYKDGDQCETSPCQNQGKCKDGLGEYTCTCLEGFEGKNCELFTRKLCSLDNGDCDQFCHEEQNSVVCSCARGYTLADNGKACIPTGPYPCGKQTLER
T1 sequence (P00742 235-488 limits assumed): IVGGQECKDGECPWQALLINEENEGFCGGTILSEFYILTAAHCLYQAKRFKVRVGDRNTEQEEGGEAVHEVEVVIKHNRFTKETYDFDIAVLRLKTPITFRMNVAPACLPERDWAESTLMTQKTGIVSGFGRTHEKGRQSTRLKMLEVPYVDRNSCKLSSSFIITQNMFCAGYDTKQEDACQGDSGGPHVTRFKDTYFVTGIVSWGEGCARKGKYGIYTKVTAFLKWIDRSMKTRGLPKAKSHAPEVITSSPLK
Chain of Serine protease 1 (P07477 whole entry): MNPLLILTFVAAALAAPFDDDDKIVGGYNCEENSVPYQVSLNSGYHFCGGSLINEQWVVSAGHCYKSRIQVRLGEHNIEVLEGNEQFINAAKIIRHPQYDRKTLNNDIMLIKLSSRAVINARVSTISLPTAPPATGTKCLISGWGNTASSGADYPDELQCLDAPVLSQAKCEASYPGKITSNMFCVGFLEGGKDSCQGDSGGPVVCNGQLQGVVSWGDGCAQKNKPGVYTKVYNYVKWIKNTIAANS
Chain of Tissue-type plasminogen activator (P00750 whole entry): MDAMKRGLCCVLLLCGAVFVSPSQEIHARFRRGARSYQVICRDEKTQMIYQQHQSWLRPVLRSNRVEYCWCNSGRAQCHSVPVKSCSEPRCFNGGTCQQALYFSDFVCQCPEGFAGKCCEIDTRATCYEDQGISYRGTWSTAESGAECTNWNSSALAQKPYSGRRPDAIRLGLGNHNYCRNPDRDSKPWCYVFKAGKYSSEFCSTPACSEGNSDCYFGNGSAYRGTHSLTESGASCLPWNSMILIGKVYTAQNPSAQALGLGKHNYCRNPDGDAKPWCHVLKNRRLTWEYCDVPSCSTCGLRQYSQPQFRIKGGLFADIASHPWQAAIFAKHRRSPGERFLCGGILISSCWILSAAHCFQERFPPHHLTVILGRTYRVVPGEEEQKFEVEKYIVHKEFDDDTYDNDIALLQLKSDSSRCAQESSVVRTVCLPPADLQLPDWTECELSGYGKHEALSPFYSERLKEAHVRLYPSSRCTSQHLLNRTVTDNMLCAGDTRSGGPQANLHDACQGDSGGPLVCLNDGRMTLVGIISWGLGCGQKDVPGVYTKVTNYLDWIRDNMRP
Chain of Vitamin K-dependent protein C (P04070 43-197 limits assumed): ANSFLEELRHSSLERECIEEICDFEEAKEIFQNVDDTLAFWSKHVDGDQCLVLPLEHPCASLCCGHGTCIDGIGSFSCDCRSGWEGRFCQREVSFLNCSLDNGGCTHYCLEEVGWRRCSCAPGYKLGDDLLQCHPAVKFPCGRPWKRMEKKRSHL
Chain of Vitamin K-dependent protein C (P04070 212-461 limits assumed): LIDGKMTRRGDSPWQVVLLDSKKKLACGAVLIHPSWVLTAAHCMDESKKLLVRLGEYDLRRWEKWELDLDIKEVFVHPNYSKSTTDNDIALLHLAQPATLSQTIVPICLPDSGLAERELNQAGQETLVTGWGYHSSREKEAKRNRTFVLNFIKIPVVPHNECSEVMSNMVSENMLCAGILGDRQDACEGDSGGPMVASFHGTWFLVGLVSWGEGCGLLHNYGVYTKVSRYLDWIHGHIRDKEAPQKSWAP

Compound | IC50 (Prothrombin) [µM] | IC50 (Coagulation factor X [1]) [µM] | IC50 (Serine protease 1) [µM] | IC50 (Coagulation factor X [2]) [µM] | bioavailability [3] [%] | IC50 [4] [µM] | IC50 [5] [µM] | IC50 (Plasminogen) [µM]
Nc1[nH]nc2ccc(C(=O)N[C@@H](C(=O)Nc3ccc(-c4ccccc4S(N)(=O)=O)cc3)c3ccccc3)cc12 | > 10 | 3.45 |  |  |  |  |  | 
N=C(N)c1cccc(C(=O)N[C@H](C(=O)Nc2ccc(-c3ccccc3S(N)(=O)=O)cc2)c2ccccc2)c1 | > 10 | 0.337 | 5.17 |  |  |  |  | 
Nc1noc2ccc(C(=O)N[C@@H](C(=O)Nc3ccc(-c4ccccc4S(N)(=O)=O)cc3)c3ccccc3)cc12 | > 10 |  |  | > 10 |  |  |  | 
N=C(N)c1cccc(C(=O)N[C@@H](CC(=O)OC2CCCCC2)C(=O)Nc2ccc(-c3ccccc3S(N)(=O)=O)cc2)c1 | > 10 | 0.055 | 4.81 |  |  |  |  | 
N=C(N)c1cccc(C(=O)N2Cc3ccccc3C[C@@H]2C(=O)Nc2ccc(-c3ccccc3S(N)(=O)=O)cc2)c1 | > 10 | 0.0187 | 4.39 |  |  |  |  | 
N=C(N)c1cccc(C(=O)N2Cc3ccc(O)cc3C[C@H]2C(=O)Nc2ccc(-c3ccccc3S(N)(=O)=O)cc2)c1 | > 10 | 0.0967 | 0.888 |  |  |  |  | 
N=C(N)c1cccc(C(=O)N[C@@H](CCC(=O)OC2CCCCC2)C(=O)Nc2ccc(-c3ccccc3S(N)(=O)=O)cc2)c1 | > 10 | 0.842 | > 10 |  |  |  |  | 
N=C(N)c1cccc(C(=O)N[C@H](Cc2ccccc2)C(=O)Nc2ccc(-c3ccccc3S(N)(=O)=O)cc2)c1 | > 10 | 0.0313 | > 10 |  |  |  |  | 
Nc1nccc2ccc(C(=O)N3Cc4ccccc4C[C@H]3C(=O)Nc3ccc(-c4ccccc4S(N)(=O)=O)cc3)cc12 | > 10 |  |  | 2.77 |  |  |  | 
CC(C)[C@@H](NC(=O)c1cccc(C(=N)N)c1)C(=O)Nc1ccc(-c2ccccc2S(N)(=O)=O)cc1 | > 10 | 0.0348 | > 10 |  |  |  |  | 
N=C(N)c1cccc(C(=O)N[C@@H](CCC(=O)OCc2ccccc2)C(=O)Nc2ccc(-c3ccccc3S(N)(=O)=O)cc2)c1 | > 10 | 0.644 | 5.64 |  |  |  |  | 
Nc1[nH]nc2ccc(C(=O)N[C@H](C(=O)Nc3ccc(-c4ccccc4S(N)(=O)=O)cc3)c3ccccc3)cc12 | 10 | 10 |  |  |  |  |  | 
N=C(N)c1cccc(C(=O)N[C@@H](Cc2ccccc2)C(=O)Nc2ccc(-c3ccccc3S(N)(=O)=O)cc2)c1 | > 10 | 0.762 | > 10 |  |  |  |  | 
N=C(N)c1cccc(C(=O)N[C@@H](CCC(=O)O)C(=O)Nc2ccc(-c3ccccc3S(N)(=O)=O)cc2)c1 | > 10 | 1.44 | > 10 |  |  |  |  | 
N=C(N)c1cccc(C(=O)N2Cc3ccc(O)cc3C[C@@H]2C(=O)Nc2ccc(-c3ccccc3S(N)(=O)=O)cc2)c1 | > 10 | 1.78 | > 10 |  |  |  |  | 
CC(C)[C@H](NC(=O)c1cccc(C(=N)N)c1)C(=O)Nc1ccc(-c2ccccc2S(N)(=O)=O)cc1 | > 10 | 0.676 | > 10 |  |  |  |  | 
N=C(N)c1cccc(C(=O)N2CCC[C@H]2C(=O)Nc2ccc(-c3ccccc3S(N)(=O)=O)cc2)c1 | > 10 | > 10 | > 10 |  |  |  |  | 
N=C(N)c1cccc(C(=O)N[C@H](C(=O)Nc2ccc(-c3ccccc3S(N)(=O)=O)cc2)C2CCCCC2)c1 | > 10 | 0.635 | > 7.93 |  |  |  |  | 
N=C(N)c1cccc(C(=O)N2Cc3ccccc3C[C@H]2C(=O)Nc2ccc(-c3ccccc3S(N)(=O)=O)cc2)c1 | > 10 | 0.003 | 2.15 |  | < 5 | 73 | 180 | 77.9
N=C(N)c1cccc(C(=O)NCC(=O)Nc2ccc(-c3ccccc3S(N)(=O)=O)cc2)c1 | > 10 | 0.851 | > 10 |  |  |  |  | 
N=C(N)c1cccc(C(=O)N[C@@H](C(=O)Nc2ccc(-c3ccccc3S(N)(=O)=O)cc2)c2ccccc2)c1 | > 10 | 0.0348 | 1.77 |  | < 5 | 6.56 | > 180 | 18.1
